In patent US20150175556A1, “DIHYDROPYRIMIDIN-2(1H)-ONES AND DIHYDROPYRIMIDIN-2(1H)-THIONES AS INHIBITORS OF SODIUM IODIDE SYMPORTER” (COMMISSARIAT A L'ENERGIE ATOMIQUE ET AUX ENERGIES …, priority 2012, published 2015) one finds IC50 and melting point data, which are given here for 18 molecules.

The target of data set [1] is T1, sodium iodide symporter (NIS), iodide uptake in FRTL5 cells (Rattus norvegicus, UniProt Q63008).
T1 construct: endogenous in cells; host or cells: FRTL5 (rat thyroid-derived cells)
T1 sequence (Q63008 1-618): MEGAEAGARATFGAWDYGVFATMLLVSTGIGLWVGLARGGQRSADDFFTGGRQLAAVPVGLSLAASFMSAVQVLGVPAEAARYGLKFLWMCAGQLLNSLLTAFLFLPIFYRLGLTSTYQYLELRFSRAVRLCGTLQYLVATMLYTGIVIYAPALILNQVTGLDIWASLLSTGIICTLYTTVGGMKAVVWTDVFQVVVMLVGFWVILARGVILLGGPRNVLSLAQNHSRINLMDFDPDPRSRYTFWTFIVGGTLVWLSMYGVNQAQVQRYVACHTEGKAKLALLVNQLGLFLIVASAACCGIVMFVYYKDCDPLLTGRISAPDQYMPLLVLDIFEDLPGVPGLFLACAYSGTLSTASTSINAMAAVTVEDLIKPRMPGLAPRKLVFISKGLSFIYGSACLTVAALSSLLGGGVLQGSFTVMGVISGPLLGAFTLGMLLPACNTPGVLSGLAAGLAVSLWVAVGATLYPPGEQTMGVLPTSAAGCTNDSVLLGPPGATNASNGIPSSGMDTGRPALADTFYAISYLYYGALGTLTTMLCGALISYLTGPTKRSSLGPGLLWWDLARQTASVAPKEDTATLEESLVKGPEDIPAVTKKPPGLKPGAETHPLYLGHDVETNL
As to the kind of experiment: Inhibition of iodide uptake in FRTL5 cells, non radioactive arsenic/cerium assay. Format: cell-based. The conditions noted are these: NaI 10 μM, 1 hour, 20°C, read-out: IC50 (μM), inhibitory activity against iodide uptake in FRTL5 cells. The method, then:
Some of the synthesized compounds were evaluated for their ability to inhibit iodide entrapment in FRTL5 cells. The IC50 values were measured in at least […] independent experiments.
The biological activity of each compound was determined in FRTL5 cells, using a non radioactive arsenic/cerium assay as described in F. Waltz et al., Anal. Biochem., 2012, 396, 91-95. Compound potency was expressed as IC50, the concentration of compound necessary to achieve 50% inhibition of iodide uptake. Briefly, to FRTL5 cells at 70-90% confluence was added compound (200 μM, 10 μM, 0.5 μM, 25 nM, 1.2 nM, 60 pM, […], and 0.15 pM final), followed by NaI (10 μM final). After 1 hour incubation at 20±1° C., supernatant was removed and the cells were immediately assayed for iodide content using the modified As/Ce Sandell-Kolthoff reaction. NaClO4 was tested in each microplate as assay controls. The IC50 values of all compounds were measured least thrice independently.
Stock solutions of tested compounds were prepared in DMSO (20 mM) and that of NaClO4 in water (20 mM). These stock solutions were stored at 4° C. for up to 2 months. Sample dilutions: the day of the assay, a daughter plate (clear flat-bottomed 96-well polystyrene microplates, Costar 9017) was prepared from 20 mM stock solutions. NaClO4 (column 2) and DHPM samples (columns 4 to 11) were diluted at 10× the final concentration in uptake buffer.
FRTL5 cells were cultured as described in F. S. Ambesi-Impiombato et al., Proc. Natl. Acad. Sci. USA, 1980, 77, 3455-3459. Briefly, FRTL5 cells were cultured in Coon's modified F12 medium supplemented with 5% heat-inactivated fetal bovine serum (Invitrogen), 2 mM L-glutamine, 100 U/mL penicillin, 0.1 mg/mL streptomycin, 10 μg/mL insulin, 10 nM hydrocortisone, 10 ng/mL Gly-His-Lys acetate, 1 mU/mL TSH, 5 μg/mL transferrin at 37° C. and 5% CO2. For iodide uptake assays, 200 μL of FRTL5 cells with density of 250,000 cells/mL were dispensed in each well of clear flat-bottomed 96-well polystyrene microplates (Costar 3628) using the Multidrop 384 (ThermoFisher Scientific), and further cultured until confluence reached 80-90% (3-4 days).
The culture medium of FRTL5 monolayer cells at 80-90% confluence was replaced by uptake buffer (20° C.) via continuous aspiration/dispense cycle (600 μL) using a 96-needle head plate washer PW 384 (Tecan). The 96-needle head was set to a vertical position such that 80 μL of fresh uptake buffer remained in each well at the end of the cycle. The samples (10 μL each) from the daughter plate were transferred all at once to the assay plate using the 96-tip head pipettor Liquidator 96 (Mettler Toledo). Immediately after, 10 μL of a NaI solution at 100 μM was added to each well of the assay plate using the Liquidator 96. The assay plate was left to stand in the dark at 20±1° C. for 60 min. The assay plate was then washed with cold (4° C.) uptake buffer using the PW 384 plate washer and residual supernatant was immediately discarded by inverting the assay plate on absorbent paper.
Sodium iodide standards (S1 to S7) and water (S0) were distributed in duplicate (100 μL each) in the first and last column of the assay plate. Water (100 μL) was added to the columns with the Multidrop 384. 100 μL of the ammonium cerium (IV) sulfate solution (10.5 mM) was distributed into the columns, followed by 100 μL of the sodium arsenite (III) solution (24 mM) using the Multidrop 384. The assay plate was left to stand at 20±1° C. for 30 min. The absorbance at 420 nm (Abs420) was immediately recorded on a SpectraMax Plus 384 (Molecular Devices). A calibration curve was prepared for each plate by plotting the logarithmic conversion of the means of Abs420 (n=2) vs iodide standard concentrations (S0 to S7). The iodide concentrations in the samples were determined after linear regression of the calibration curve.

The mark [2] stands for this setting: Table 1, variations at R1, averaged from three or four independent experiments.
Setting [3] is: Table 5, variations at Y, R1, R3, R4, R5, averaged from two to four independent experiments.
[4] abbreviates: Table 2, variations at R5, averaged from three or four independent experiments.

Molecules are shown by their SMILES. Where two headings read alike, the source gives them in different places.

The IC50 is the point on the concentration scale where inhibition reaches its midpoint. For orientation: melting point means the temperature, or range, at which the solid turns liquid. Turning to `COc1ccc(COC(=O)C2=C(C)NC(=O)NC2c2ccc(C)o2)cc1` (stereo not drawn) [Compound 29, 4-Methoxybenzyl 6-methyl-2-oxo-4-(5-methylfuran-2-yl)-1,2,3,4-tetrahydropyrimidine-5-carboxylate], the melting point was 157 to 159 °C. In addition, in data set [1] (setting [2]), the IC50 is 0.09 µM.

As to `CC1=C(C(=O)OCc2ccc3c(c2)OCO3)C(c2ccco2)NC(=O)N1` (stereo not drawn) [Compound 59, benzo[d][1,3]dioxol-5-ylmethyl 4-(furan-2-yl)-6-methyl-2-oxo-1,2,3,4-tetrahydropyrimidine-5-carboxylate], the melting point fell in the range of 169 to 171 °C. Besides, in data set [1] (setting [3]), the IC50 stood at 0.004 µM.

Regarding `COc1ccc(COC(=O)C2=C(C)NC(=O)NC2c2ccsc2)cc1` (stereo not drawn) [Compound 31, 4-Methoxybenzyl 6-methyl-2-oxo-4-(thiophen-3-yl)-1,2,3,4-tetrahydropyrimidine-5-carboxylate], the melting point lay within 156 to 158 °C. Further, the IC50 in data set [1] (setting [2]) turned out to be 0.04 µM.

Consider `CC1=C(C(=O)OCc2ccccc2Cl)C(c2ccccc2)NC(=O)N1` (stereo not drawn) [Compound 33, 2-Chlorobenzyl 6-methyl-2-oxo-4-phenyl-1,2,3,4-tetrahydropyrimidine-5-carboxylate], for which the melting point was 193 to 195 °C. The IC50 in data set [1] (setting [4]) amounted to 0.35 µM.

For the molecule `COc1ccc(COC(=O)C2=C(C)NC(=O)NC2c2ccc(F)cc2)cc1` (stereo not drawn) [Compound 25, 4-Methoxybenzyl 4-(4-fluorophenyl)-6-methyl-2-oxo-1,2,3,4-tetrahydropyrimidine-5-carboxylate], the melting point is 172 to 175 °C. The IC50 in data set [1] (setting [2]) was determined as 0.15 µM.

In the case of `COc1ccc(COC(=O)C2=C(C)NC(=O)NC2c2ccccc2F)cc1` (stereo not drawn) [Compound 23, 4-Methoxybenzyl 4-(2-fluorophenyl)-6-methyl-2-oxo-1,2,3,4-tetrahydropyrimidine-5-carboxylate], the melting point was in the range of 181 to 183 °C. For the same molecule, the IC50 in data set [1] (setting [2]) is 0.065 µM.

As for `COc1ccc(COC(=O)C2=C(C)NC(=O)NC2c2ccoc2)cc1` (stereo not drawn) [Compound 28, 4-Methoxybenzyl 4-(furan-3-yl)-6-methyl-2-oxo-1,2,3,4-tetrahydropyrimidine-5-carboxylate], the melting point lay within 157 to 159 °C. Moreover, the concentration for half-maximal inhibition (IC50) in data set [1] (setting [2]) was found to be 0.02 µM.

`COc1ccc(COC(=O)C2=C(C)N(C)C(=O)N(C)C2c2ccco2)cc1OC` (stereo not drawn) [Compound 58, 3,4-Dimethoxybenzyl 4-(furan-2-yl)-1,3,6-trimethyl-2-oxo-1,2,3,4-tetrahydropyrimidine-5-carboxylate] came in with a melting point of 122 to 124 °C. Moreover, the IC50 in data set [1] (setting [3]) was found to be 0.065 µM.

As for `CC1=C(C(=O)OCc2ccccc2)C(c2ccccc2)NC(=O)N1` (stereo not drawn) [Compound 32, Benzyl 6-methyl-2-oxo-4-phenyl-1,2,3,4-tetrahydropyrimidine-5-carboxylate], the melting point lay within 174 to 175 °C. Also, the IC50 in data set [1] (setting [4]) was found to be 0.19 µM.

As to `CC1=C(C(=O)OCc2ccc3c(c2)OCO3)C(c2ccco2)NC(=O)N1C` (stereo not drawn) [Compound 60, Benzo[d][1,3]dioxol-5-ylmethyl 4-(furan-2-yl)-1,6-dimethyl-2-oxo-1,2,3,4-tetrahydropyrimidine-5-carboxylate], the melting point was 141 to 143 °C. Besides, the IC50 in data set [1] (setting [3]) turned out to be 0.073 µM.

In turn, `COc1cccc(COC(=O)C2=C(C)N(C)C(=O)NC2c2ccco2)c1` (stereo not drawn) [Compound 56, 3-Methoxybenzyl 4-(furan-2-yl)-1,6-dimethyl-2-oxo-1,2,3,4-tetrahydropyrimidine-5-carboxylate] came in with a melting point of 155 to 156 °C. Besides, the IC50 in data set [1] (setting [3]) worked out at 0.075 µM.

Regarding `COc1ccc(COC(=O)C2=C(C)NC(=O)NC2c2cccc(Br)c2)cc1` (stereo not drawn) [Compound 21, 4-Methoxybenzyl 4-(3-bromophenyl)-6-methyl-2-oxo-1,2,3,4-tetrahydropyrimidine-5-carboxylate], the melting point lay within 164 to 166 °C. In data set [1] (setting [2]), the IC50 was 0.35 µM.

Molecule `COc1ccc(COC(=O)C2=C(C)N(C)C(=O)NC2c2ccco2)cc1` (stereo not drawn) [Compound 53, 4-Methoxybenzyl 4-(furan-2-yl)-1,6-dimethyl-2-oxo-1,2,3,4-tetrahydropyrimidine-5-carboxylate] registered a melting point of 112 to 113 °C. Further, the IC50 in data set [1] (setting [3]) was determined as 0.09 µM.

In turn, `CC1=C(C(=O)OCc2ccccc2C)C(c2ccccc2)NC(=O)N1` (stereo not drawn) [Compound 36, 2-Methylbenzyl 6-methyl-2-oxo-4-phenyl-1,2,3,4-tetrahydropyrimidine-5-carboxylate] yielded a melting point of 157 to 159 °C. Also, in data set [1] (setting [4]), the IC50 was 0.25 µM.

The molecule `CC1=C(C(=O)OCc2ccc(F)cc2)C(c2ccccc2)NC(=O)N1` (stereo not drawn) [Compound 35, 4-Fluorobenzyl 6-methyl-2-oxo-4-phenyl-1,2,3,4-tetrahydropyrimidine-5-carboxylate] displayed a melting point of 196 to 197 °C. For the same molecule, the IC50 in data set [1] (setting [4]) is 0.2 µM.

Consider `CC1=C(C(=O)NCc2ccc3c(c2)OCO3)C(c2ccccc2)NC(=O)N1` (stereo not drawn) [Compound 63, N-(benzo[d][1,3]dioxol-5-ylmethyl) 6-methyl-2-oxo-4-phenyl-1,2,3,4-tetrahydropyrimidine-5-carboxamide], for which the melting point is 235 to 237 °C. Also, the IC50 in data set [1] (setting [3]) was found to be 0.078 µM.

In turn, `COc1ccc(COC(=O)C2=C(C)N(C)C(=O)NC2c2ccccc2)cc1` (stereo not drawn) [Compound 50, 4-Methoxybenzyl 1,6-dimethyl-2-oxo-4-phenyl-1,2,3,4-tetrahydropyrimidine-5-carboxylate] registered a melting point of 134 to 136 °C. Also, in data set [1] (Table 4, variations at X, R3, R4, averaged from three or four independent experiments), the IC50 stood at 0.075 µM.

For the molecule `CC1=C(C(=O)OCc2ccc3c(c2)OCO3)C(c2ccoc2)NC(=O)N1` (stereo not drawn) [Compound 62, Benzo[d][1,3]dioxol-5-ylmethyl 4-(furan-3-yl)-6-methyl-2-oxo-1,2,3,4-tetrahydropyrimidine-5-carboxylate], the melting point lay within 172 to 173 °C. Moreover, in data set [1] (setting [3]), the IC50 was 0.037 µM.
